Literature values as cited in patent US20230393151A1, “Precision Targeted Retromer Therapeutics for the Treatment of Neurodegenerative Diseases and Disorders” (The Trustees of Columbia University in the City of New York, priority 2020, published 2023).

Assays:
VPS35 and VPS26 = target: T1, VPS35 and VPS26 (Mus musculus, UniProt Q9EQH3+Q9QZ88); conditions: cultured primary neurons; Mecozzi et al. 2014
T1 construct: endogenous in cells

[1] = target: purified, reconstituted heterotrimeric complex (retromer) (Homo sapiens, UniProt Q96QK1+Q9UBQ0); conditions: incubated with complex at various concentrations; Mecozzi et al. 2014

[H]/N=C(\N)SCc1ccc(CS/C(N)=N/[H])s1 [R55]
VPS35 and VPS26 protein levels (VPS35 and VPS26): increased | Thermal stability of retromer complex [1]: improved thermal stability significantly
